The values that follow come from PMC7072517 (Biomolecules, 2020).

In series [1] the target is T1, soluble epoxide hydrolase (sEH) (Homo sapiens, UniProt P34913).
T1 construct: purchased Cayman (Ann Arbor, MI, USA) 10011669
T1 sequence (P34913 1-555): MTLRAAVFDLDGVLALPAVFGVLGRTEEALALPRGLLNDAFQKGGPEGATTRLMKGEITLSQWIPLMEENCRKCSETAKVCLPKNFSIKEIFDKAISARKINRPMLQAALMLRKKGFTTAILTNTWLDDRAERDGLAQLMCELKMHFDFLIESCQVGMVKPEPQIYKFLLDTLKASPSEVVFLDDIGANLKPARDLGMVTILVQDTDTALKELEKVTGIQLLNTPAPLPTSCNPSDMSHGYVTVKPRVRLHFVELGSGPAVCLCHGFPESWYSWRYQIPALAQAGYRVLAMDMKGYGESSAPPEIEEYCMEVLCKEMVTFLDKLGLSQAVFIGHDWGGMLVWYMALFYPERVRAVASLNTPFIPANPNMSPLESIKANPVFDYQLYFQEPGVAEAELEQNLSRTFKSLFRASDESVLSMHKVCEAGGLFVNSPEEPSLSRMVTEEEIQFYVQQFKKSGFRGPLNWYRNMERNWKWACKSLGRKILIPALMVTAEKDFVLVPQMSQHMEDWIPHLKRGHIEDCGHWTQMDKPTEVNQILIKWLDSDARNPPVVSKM
The conditions noted are these: cited from earlier work.

On the set-up of series [2]: method as in PMID 19794443. The conditions noted are these: cited from earlier work.
The target of series [3] is T1, soluble epoxide hydrolase (sEH). In words: sEH enzyme kinetics (Lineweaver–Burk and Dixon plots). The series is classed as biochemical. The conditions noted are these: for Binding Mode (inhibition type): Lineweaver–Burk plot, substrate 1–12.5 µM. How it is done: sEH (130 µL, ~16 ng/mL) in 25 mM bis-Tris-HCl buffer (pH 7.0) containing 0.1% BSA and 20 µL of compound in MeOH was mixed in a 96-well plate, followed by the addition of 50 µL buffer containing 5 µM PHOME. The reactions were carried out at 37°C for 40 min. The inhibitory ratio was calculated according to the following equations: Inhibitory activityrate (%) = [[…]] × 100(1) where ΔC andΔS represent the intensity of control and inhibitor after 40 min, respectively. y = y0 + [(a × x)/(b + x)](2) where y0 is the minimum value on the y-axis, a denotes the difference between maximum and minimum values, and b refers to the x value at 50%.
The inverse of these concentrations and v0 values were used for the Lineweaver–Burk plot. […] Furthermore, the Dixon plot is represented by the modified Lineweaver–Burk plot.

Series [4] shares this target. In words: sEH inhibition assay (PHOME substrate, fluorescence). The conditions noted are these: 5 µM PHOME, 37°C, 40 min, pH 7.0; n = 3; read-out: IC50, inhibitory activity on sEH (converted). The series is classed as biochemical. As for the experimental part: The reactions were carried out at 37°C for 40 min. The inhibitory ratio was calculated according to the following equations: Inhibitory activityrate (%) = [(ΔC/ΔS)/ΔC] × 100(1) where ΔC andΔS represent the intensity of control and inhibitor after 40 min, respectively. y = y0 + [(a × x)/(b + x)](2) where y0 is the minimum value on the y-axis, a denotes the difference between maximum and minimum values, and b refers to the x value at 50%.

On to `COc1cc(O)c2c(=O)c(OC)c(-c3ccc(O[C@@H]4O[C@H](CO)[C@@H](O)[C@H](O)[C@H]4O[C@@H]4OCC(O)(CO)[C@H]4O)c(OC)c3)oc2c1` (stereo partly drawn) [3,7,3′-tri-O-methylquercetin-4′-O-β-D-apiofuranosyl-(1→2)-O-β-D-glucopyranoside], for which the “inhibition type on sEH” value in series [1] is reported as “non-competitive”.
In the case of `O=C(O)CCCCCCCCCCCNC(=O)NC12CC3CC(CC(C3)C1)C2` [AUDA, 12-(3-adamantan-1-yl-ureido)dodecanoic acid], the solubility entry in series [2] is listed as “low”.
Regarding `O=c1cc(-c2ccc(O)cc2)oc2cc(O)cc(O)c12` [apigenin], in series [1], the “inhibition type on sEH” value is “non-competitive”.
As to `COc1cc(-c2cc(=O)c3c(O)cc(O)cc3o2)ccc1O` [compound 1, chrysoeriol], the “Binding Mode (inhibition type)” value in series [3] is on record as “Non-competitive type”.
The IC50 is the concentration at which inhibition is half-maximal. As a reminder, the Ki is the equilibrium dissociation constant of an inhibitor or competing ligand from its target. High values mean a looser hold on the target, low ones a stronger hold on the target. As to `O=c1cc(-c2ccc(O)c(O)c2)oc2cc(O[C@@H]3O[C@H](CO)[C@@H](O)[C@H](O)[C@H]3O)cc(O)c12` [compound 2, luteolin-7-O-glucopyranoside], the IC50 in series [4] was 32.1 µM. Also, the Ki in series [3] (Dixon plot) was found to be 26.5 µM. In addition, in series [3], the “Binding Mode (inhibition type)” value is recorded as “Non-competitive type”.
As for `O=c1c(O)c(-c2ccc(O)cc2)oc2cc(O)cc(O)c12` [kaempferol], in series [1], the “inhibition type on sEH” value is given as “non-competitive”.
With `O=c1c(O[C@@H]2O[C@H](CO)[C@H](O)[C@H](O)[C@H]2O)c(-c2ccc(O)c(O)c2)oc2cc(O)cc(O)c12` [quercetin-3-O-β-D-galactoside], the “inhibition type on sEH” value in series [1] is “non-competitive”.
